Experimental data published in ChEMBL document CHEMBL1123009, “Synthesis and antimicrobial evaluation of bicyclomycin analogues” (1985).
≈ marks a conversion by molar mass, not a printed value. Calls of active or inactive are those of the source. The calls are words filed in the database; no cut-off is given here.

Legend:
Staphylococcus aureus [1] = test: Minimum inhibitory concentration against gram-negative and gram-positive bacterial strains; Not active.; type: functional, organism-based
Staphylococcus aureus [2] = test: Compound was evaluated for its antibiotic activity against gram-negative and gram-positive bacterial strains; NA = not active; type: functional, organism-based
Pseudomonas aeruginosa = test: Minimum inhibitory concentration against Pseudomonas aeruginosa 56; type: functional
Bacillus [3] = test: Minimum inhibitory concentration against Bacillus sp. TA; type: functional
[4] = system: Acinetobacter calcoaceticus; test: Minimum inhibitory concentration against Acinetobacter calcoaceticus PCl3; type: functional
Staphylococcus aureus [5] = test: Minimum inhibitory concentration against Staphylococcus aureus 82; type: functional
Enterococcus faecium = test: Minimum inhibitory concentration against Streptococcus faecium ATCC 8043; type: functional
Saccharomyces cerevisiae = test: Minimum inhibitory concentration against Saccharomyces cerevisiae 90; type: functional
Bacillus [6] = test: Minimum inhibitory concentration against Bacillus sp. E; type: functional
Streptomyces sp. = test: Minimum inhibitory concentration against Gram positive filament Streptomyces cellulose 097; type: functional
Serratia = test: Minimum inhibitory concentration against Serratia sp.101; type: functional
Mycolicibacterium phlei = test: Minimum inhibitory concentration against Mycobacterium phlei 78; type: functional
Priestia megaterium = test: Minimum inhibitory concentration against Bacillus megaterium 164; type: functional
Paecilomyces variotii = test: Minimum inhibitory concentration against Paecilomyces varioti M16; type: functional
Candida albicans = test: Minimum inhibitory concentration against yeast Candida albicans 155; type: functional
Bacillus subtilis = test: Minimum inhibitory concentration against Bacillus subtilis 558; type: functional
Klebsiella pneumoniae = test: Minimum inhibitory concentration against Klebsiella pneumoniae 369; type: functional
Escherichia coli = test: Minimum inhibitory concentration against Escherichia coli 94; type: functional
Serratia marcescens = test: Minimum inhibitory concentration against Serratia marcescens SM; type: functional
Penicillium digitatum = test: Minimum inhibitory concentration against Penicillium digitatum 0184; type: functional
Proteus vulgaris = test: Minimum inhibitory concentration against Proteus vulgaris 101N; type: functional
Micrococcus luteus = test: Minimum inhibitory concentration against Micrococcus luteus PCI; type: functional

## CS[C@@]12CCCOC(C(=O)N1C)N(C)C2=O
Staphylococcus aureus [1]
  MIC: inactive

## C=C1CCOC2NC(=O)[C@@]1(O)NC2=O
Staphylococcus aureus [2]
  MIC: inactive

## C=CC1COC2C(=O)N(Cc3ccccc3)[C@@H]1C(=O)N2Cc1ccccc1 (some centres not stated)
Staphylococcus aureus [1]
  MIC: inactive

## COc1ccc(N2C(=O)[C@@H]3CCCOC2C(=O)N3c2ccc(OC)cc2)cc1
Staphylococcus aureus [1]
  MIC: inactive

## CN1C(=O)[C@@H]2CCOC1C(=O)N2C
Staphylococcus aureus [2]
  MIC: inactive

## CN1C(=O)[C@@H]2CCCOC1C(=O)N2C
Staphylococcus aureus [1]
  MIC: inactive

## C[C@](O)(CO)[C@H](O)C12NC(=O)[C@H](CCCO1)NC2=O
Staphylococcus aureus [1]
  MIC: inactive

## C[C@](O)(CO)[C@H](O)C12NC(=O)[C@](O)(CCCO1)NC2=O
Staphylococcus aureus [1]
  MIC: inactive

## C=C1CCOC2([C@@H](O)[C@@](C)(O)CO)NC(=O)[C@@]1(O)NC2=O
Staphylococcus aureus [1]
  MIC: inactive

## C=C1CCOC2C(=O)N(Cc3ccccc3)[C@]1(O)C(=O)N2Cc1ccccc1
Pseudomonas aeruginosa
  MIC: > 1000 µg/mL
Bacillus [3]
  MIC: 250 µg/mL (≈ 661 µM)
[4]
  MIC: > 1000 µg/mL
Staphylococcus aureus [5]
  MIC: > 1000 µg/mL
Enterococcus faecium
  MIC: > 1000 µg/mL
Saccharomyces cerevisiae
  MIC: > 1000 µg/mL
Bacillus [6]
  MIC: > 1000 µg/mL
Streptomyces sp.
  MIC: 500 µg/mL (≈ 1320 µM)
Serratia
  MIC: > 1000 µg/mL
Mycolicibacterium phlei
  MIC: > 1000 µg/mL
Priestia megaterium
  MIC: 500 µg/mL (≈ 1320 µM)
Paecilomyces variotii
  MIC: > 1000 µg/mL
Candida albicans
  MIC: > 1000 µg/mL
Bacillus subtilis
  MIC: 250 µg/mL (≈ 661 µM)
Klebsiella pneumoniae
  MIC: > 1000 µg/mL
Escherichia coli
  MIC: > 1000 µg/mL
Serratia marcescens
  MIC: > 1000 µg/mL
Penicillium digitatum
  MIC: > 1000 µg/mL
Proteus vulgaris
  MIC: > 1000 µg/mL
Micrococcus luteus
  MIC: 500 µg/mL (≈ 1320 µM)

## O=C1N[C@H]2CCCOC1NC2=O
Staphylococcus aureus [1]
  MIC: inactive

## O=C1N[C@@]2(O)CCCOC1NC2=O
Staphylococcus aureus [1]
  MIC: inactive

## O=C1C2OCCC[C@@](O)(C(=O)N2Cc2ccccc2)N1Cc1ccccc1
Staphylococcus aureus [1]
  MIC: inactive

## O=C1[C@@H]2[C@H](CO)COC(C(=O)N2Cc2ccccc2)N1Cc1ccccc1
Staphylococcus aureus [1]
  MIC: inactive

## CN1C(=O)[C@]2(C(O)c3ccccc3)CCCOC1C(=O)N2C (some centres not stated)
Staphylococcus aureus [1]
  MIC: inactive

## CSC12OCCC[C@@](C)(C(=O)N1C)N(C)C2=O
Staphylococcus aureus [2]
  MIC: inactive

## C=C1CCOC2NC(=O)[C@H]1NC2=O
Staphylococcus aureus [1]
  MIC: inactive

## C=C1CCOC2C(=O)N(Cc3ccccc3)[C@@H]1C(=O)N2Cc1ccccc1
Staphylococcus aureus [1]
  MIC: inactive

## O=C1[C@@H]2CCCOC(C(=O)N2Cc2ccccc2)N1Cc1ccccc1
Staphylococcus aureus [1]
  MIC: inactive

## COc1ccc(CN2C(=O)[C@@H]3CCCOC2C(=O)N3Cc2ccc(OC)cc2)cc1
Staphylococcus aureus [1]
  MIC: inactive

## C=C1COC2C(=O)N(Cc3ccccc3)[C@@H]1C(=O)N2Cc1ccccc1
Staphylococcus aureus [1]
  MIC: inactive

## C=C1CCO[C@]2([C@@H](O)[C@@](C)(O)CO)NC(=O)[C@@]1(O)NC2=O [BICOZAMYCIN]
Pseudomonas aeruginosa
  MIC: > 1000 µg/mL
Bacillus [3]
  MIC: > 1000 µg/mL
[4]
  MIC: 1000 µg/mL (≈ 3310 µM)
Staphylococcus aureus [5]
  MIC: > 1000 µg/mL
Enterococcus faecium
  MIC: > 1000 µg/mL
Saccharomyces cerevisiae
  MIC: > 1000 µg/mL
Bacillus [6]
  MIC: > 1000 µg/mL
Streptomyces sp.
  MIC: 500 µg/mL (≈ 1650 µM)
Serratia
  MIC: > 1000 µg/mL
Mycolicibacterium phlei
  MIC: 1000 µg/mL (≈ 3310 µM)
Priestia megaterium
  MIC: > 1000 µg/mL
Paecilomyces variotii
  MIC: > 1000 µg/mL
Candida albicans
  MIC: > 1000 µg/mL
Bacillus subtilis
  MIC: > 1000 µg/mL
Klebsiella pneumoniae
  MIC: 250 µg/mL (≈ 827 µM)
Escherichia coli
  MIC: 250 µg/mL (≈ 827 µM)
Serratia marcescens
  MIC: > 1000 µg/mL
Penicillium digitatum
  MIC: > 1000 µg/mL
Proteus vulgaris
  MIC: > 1000 µg/mL
Micrococcus luteus
  MIC: > 1000 µg/mL

## CN1C(=O)[C@]2(C(=O)c3ccccc3)CCOC1C(=O)N2C
Staphylococcus aureus [2]
  MIC: inactive

## C=CC1COC2NC(=O)[C@H]1NC2=O (some centres not stated)
Staphylococcus aureus [2]
  MIC: inactive
